Columns and labels:
Neuraminidase = Neuraminidase (Influenza A virus, UniProt B4URF0)
[1] = Inhibition of influenza virus A/WSN/1933 (H1N1) neuraminidase using MUNANA as substrate preincubated for 10 mins followed by substrate addition and measured for 15 mins by fluorescence assay; parameters: species or system Influenza A virus ([…])

Neuraminidase, sequence (B4URF0 whole entry): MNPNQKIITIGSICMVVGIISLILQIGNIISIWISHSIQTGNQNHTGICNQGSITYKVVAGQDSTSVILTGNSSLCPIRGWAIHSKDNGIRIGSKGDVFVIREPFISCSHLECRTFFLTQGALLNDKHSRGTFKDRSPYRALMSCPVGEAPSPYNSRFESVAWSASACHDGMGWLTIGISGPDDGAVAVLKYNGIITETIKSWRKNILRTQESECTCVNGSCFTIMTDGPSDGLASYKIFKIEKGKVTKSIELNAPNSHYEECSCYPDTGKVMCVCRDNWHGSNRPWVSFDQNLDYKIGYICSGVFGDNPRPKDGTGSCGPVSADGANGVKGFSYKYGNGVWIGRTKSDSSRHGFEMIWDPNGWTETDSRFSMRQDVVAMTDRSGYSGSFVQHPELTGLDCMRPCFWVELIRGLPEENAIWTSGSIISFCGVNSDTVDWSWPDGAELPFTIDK

Row | Compound | IC50 (Neuraminidase) [µM] | IC50 [1] [µM]
1 | O=C(NCCCN1CCOCC1)C(=O)N/N=C/c1ccccc1O | 6.48 | –
2 | CC(=O)N[C@H]1[C@H]([C@H](O)[C@H](O)CO)OC(P(=O)(O)O)=C[C@@H]1NC(=N)N | – | 0.0006
3 | COc1cc(/C=N/NC(=O)C(=O)NCCCN2CCOCC2)ccc1O | 4.67 | –
4 | O=C(NCCCN1CCOCC1)C(=O)N/N=C/c1ccc(O)c([N+](=O)[O-])c1 | 4.37 | –
5 | COc1ccccc1/C=N/NC(=O)C(=O)NCCCN1CCOCC1 | 7.1 | –
6 | COc1cc(/C=N/NC(=O)C(=O)NCCCN2CCOCC2)cc(OC)c1OC | 2.61 | –
7 | COc1ccc(/C=N/NC(=O)C(=O)NCCCN2CCOCC2)cc1OC | 2.37 | –
8 | COc1cc(/C=N/NC(=O)C(=O)NCCCN2CCOCC2)cc(OC)c1O | 3.15 | –
